Where no end group is shown, it is not given here.
How the values were obtained:
[1] = tested on: allergen specific T cells; test: T cell proliferation assay (72 h) on donor derived T cell lines (TCL02/TCL03); assay type: cell-based, human; conditions: reference peptides of WO2010/089554, proliferation only
Outline: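 Overlapping 20-mer and selected 15-mer grass allergen peptides were screened for proliferation using TCL02 (day 24) or TCL03 (day 34) lines. Lines came from grass-allergic donors' CD8-depleted PBMCs, primed with natural allergen mix and expanded with irradiated autologous or allogeneic APCs, PHA-P 0.5 μg/ml and rIL-2.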

[2] = tested on: grass pollen allergic donor derived T cell lines; test: Dose response titration in T cell proliferation assay; assay type: cell-based, human
Protocol: The dose-response relationship was tested by measuring the percentage of donor response (i.e. the percentage of donor coverage) in concentrations of 2.0, 0.1, 0.005 and 0.00025 μg/ml for the peptide combinations and in concentrations of 2.0, 0.2, 0.02 and 0.002 μg/ml for single peptides. The donor response was determined using T cell proliferation data as described in Example 3.
Relative magnitude value for a peptide or a peptide combination was calculated as percentage of highest T cell response to an allergen or a mix, by the same donor. In this way, allergen or peptide combination with highest magnitude of T cell response gets a value of 100 and T cell response magnitude of remaining peptides/peptide combinations are normalized or calculated relative to 100, for example Relative magnitude=100*(T cell response magnitude of peptide or combination/Highest T cell response in a donor). Relative magnitude were calculated mainly on Phl p 1. For donors non reactive to Phl p 1, Phl p 5 was used as reference
The donors were selected by seeking to maximize the HLA class II diversity in the donor cohort.
For peptide combinations, two set-ups were used:
A) Concentrations of 2.0, 0.1, 0.005 and 0.00025 μg/ml were tested on a set of T cell lines derived from 9 grass pollen allergic donors (same experiment as the data shown in FIG. 7b.).
B) Concentrations of 2.0, 0.066, 0.0022 and 0.00007 μg/ml were used on a set of T cell lines derived from 18 grass pollen allergic donors (same set as the donors used for testing of single peptides as described above).
Relative magnitude value for a peptide or a peptide combination was calculated as percentage of highest T cell response to an allergen or a mix, by the same donor. In this way, allergen or peptide combination with highest magnitude of T cell response gets a value of 100 and T cell response magnitude of remaining peptides/peptide combinations are normalized or calculated relative to 100, for example Relative magnitude=100*(T cell response magnitude of peptide or combination/Highest T cell response in a donor). […]

[3] = tested on: grass pollen allergic donor derived TCL-03 lines; test: Extended cross-reactivity study, proliferation on TCL03 DK1+DK2 (Study XR2), scoring; assay type: cell-based, human; conditions: study XR2; for Cross-reactivity score, Dac g: homologue from Dac g; for Cross-reactivity score, Lol p: homologue from Lol p; for Cross-reactivity sum: scores of all species added; for Cross-reactivity/species: sum divided by the number of species measured
[4] = Peptide solubility by visual inspection; assay type: physicochemical
Protocol: Water (pH 3-5) • 2. 250 mM D-Mannitol and 25 mM sodium acetate, pH 4.5 • 3. 250 mM D-Mannitol and 25 mM sodium phosphate, pH 7.0 • 4. […] Water (pH 3-5) • 2. 250 mM D-Mannitol and 25 mM sodium acetate, pH 4.5 • 3. 250 mM D-Mannitol and 25 mM sodium phosphate, pH 7.0 • 4. […] A subset of the peptides was selected as candidate peptides for a final peptide mixture. […] During the solubility studies the peptide-containing solutions were inspected visually before and after filtration for turbidity, and presence of particles/aggregates. In addition, presence of turbidity/particles/aggregates was also detected by optical density (OD) or absorbance of filtered material, but might also be detected by size-exclusion chromatography. Furthermore, Sub-visual particles may also be detected by dynamic light scattering (DLS) analysis on filtered and non-filtered peptide containing solutions. Samples were furthermore subjected to centrifugation to allow for the possible visual inspection of pelleted material.

[5] = tested on: grass allergic donor derived T cell lines (TCL-02 DK-2); test: Cross-reactivity of homologue peptides, proliferation on TCL02-DK2 (Study XR1); assay type: cell-based, human; conditions: 2 μg/ml, TCL02-DK2, 21 donors
Protocol: To measure the experimental cross-reactivity the proliferation assay of Example 3 was carried out on 21 grass allergic donors (TCL02-DK2). […] Cross-reactivity to Phleum pratense peptides with either close (Lolium perenne (Lol p)) or distant (Phalaris aquatica (Pha a), Cynodon dactylon (Cyn d)) species was experimentally investigated.
For analysing the cross-reactivity data, it was investigated if a donor responds to both native and homologue peptide, XY correlation plots were made where the donor responses to native peptides were plotted versus the donor responses to homologues. […] If less than five donors were responding to the parent peptides, then the data was considered to be in-conclusive, and were thus labelled with “-”. For some of the peptides the analysis was further supported by performing a Spearman r-Non Parametric test (data not shown).
Further the magnitude of T cell response from a parent peptide as defined herein and homologue response were plotted in a XY plot by using GraphPad Prism 6.
To measure the experimental cross-reactivity, the proliferation assay of Example 3 was carried out on 21 grass pollen allergic donors (TCL02-DK2, Study XR1) and 20 grass pollen allergic donors (TCL03−DK1+DK2, Study XR2). […] In Study XR1, Cross-reactivity to Phleum pratense peptides with either close (Lolium perenne-Lol p) or distant ([…]-Pha a, Cynodon dactylon-Cyn d) species was experimentally investigated. In Study XR1, 67 homologue peptides corresponding to 41 native Phleum pratense peptides were investigated together with the 41 Phleum pratense peptides at a concentration of 2 μg/ml. Similarly, study XR2 was carried out on 20 grass pollen allergic donors where donor derived TCL-03 lines were used to investigate Phleum pratense cross-reactivity to Poa pratensis (Poa p), Dactylis glomerata (Dac g), Festuca pratensis (Fes p), Paspalum notatum (Pas n), Sorghum halepense (Sor h), Lolium perenne (Lol p), Phalaris aquatica (Pha a) and Cynodon dactylon (Cyn d).

[6] = Extended solubility and short term stability study (visual, U-HPLC recovery, DLS, 90LS, UV-VIS, sum of scores); conditions: for solubility: pH 4.5
Protocol: For that purpose, the peptides were provided as acetate salts (produced by Innovagen® at a >10 mg scale of manufacturing). To take into account batch-to-batch variations, some peptides were tested from other batches of the manufacturer Innovagen®, as well as from another manufacturer (Almac) and from in-house production. Solubility experiments were performed on peptide in solution in concentrations ranging from 0.5 mg/mL to 3 mg/mL (dry matter)—with the following solvents: • Water • Acetate buffer, pH 4.5 (25 mM sodium acetate containing 250 mM D-Mannitol) • Phosphate buffer, pH 7.0 (25 mM sodium phosphate containing 250 mM D-Mannitol) • Glycine buffer, pH 8.5 (25 mM glycine containing 250 mM D-Mannitol)
The solubility of the peptides was initially investigated by visual inspection and U-HPLC recovery. Visual inspection included assessment of turbidity and presence of particles/aggregates of each peptide solution before and after centrifugation as well as visual inspection of pelleted material. The visual inspection were reported as “clear solution”, “very small precipitation only visible with a magnifier”, “precipitation visible/turbid solution” or “more precipitation/turbid solution”. Filtration of peptide solutions were conducted using syringe based filters containing a polyethersulfone (PES) membrane chemistry and a pore size of 0.2 μm. The amount of the peptide in the supernatant of a filtered sample was determined using U-HPLC with reverse phase chromatography and recovery were determined as described in Example 5.
Peptide solutions were investigated at a time point of 1 hour after production, but were also repeated at later time point (e.g. 24. 48 or 96 hours) to investigate the stability of the peptides.
Peptide solutions were investigated to determine the presence of turbidity/particles/aggregates by use of optical density (OD) and change in UV-VIS absorbance at a wavelength of 320 nm, of the filtrate. […] In addition or as an alternative, the amount of the peptide in the supernatant of a filtered sample was determined using U-HPLC as described above, with the exception that the recovery was determined by dividing the peak area of the filtered sample in relation to the peak area in the original solution prior to filtration. See also Example 5 for further details regarding UV-VIS, and recovery measured by U-HPLC.
The peptides were scored in relation to the outcome of the above mentioned tests: For each peptide in a given buffer and at a given concentration, a sum of test scores was calculated and the sum used to rank the peptides according to solubility: • 1. […] DLS peak 1 number 3 nm gave a score of 1, 3-10 nm gave a score of 2, 10-100 nm gave a score of 3, >100 nm gave a score of 4. • 5. 90LS at 400 nm: Intensity <450 gave a score of 1, <800 gave a score of 2, >800 gave a score of 3. • 6. UV-VIS change in absorbance at 320 nm within 24 hours: 0.01 gave a score of 1, ≤0.05 gave a score of 2, 0.0.2 gave a score of 3 and >0.2 gave a score of 4.

Compound | Cross-reactivity score, Dac g ([3]; score 0 to 7) | Cross-reactivity score, Lol p ([3]; score 0 to 7) | Cross-reactivity sum [3] | Cross-reactivity/species [3] | solubility, 1st round of solubility screening [4] | experimental cross-reactivity [5] | solubility in all the test samples (concentrations and pH tested), all solubility tests [6] | solubility in aqueous solutions and short-term stability [6] | solubility [6] | further results
CC[C@H](C)[C@H](NC(=O)[C@H](C)NC(=O)[C@H](CCCCN)NC(=O)[C@@H](NC(=O)[C@H](CC(C)C)NC(=O)[C@H](C)NC(=O)[C@H](C)NC(=O)[C@H](CCC(=O)O)NC(=O)[C@H](Cc1ccccc1)NC(=O)[C@@H](NC(=O)[C@H](C)NC(=O)[C@H](Cc1ccc(O)cc1)NC(=O)[C@H](CCCCN)NC(=O)[C@@H](NC(=O)[C@H](CCC(=O)O)NC(=O)[C@@H]1CCCN1C(=O)[C@@H](N)CCCCN)C(C)C)C(C)C)[C@@H](C)O)C(=O)N[C@H](C(=O)O)[C@@H](C)O [peptide 142] | – | – | – | – | – | – | – | – | – | average relative magnitude [1]: around 8; donor coverage, dose response of single peptides ([2]; 0.002 μg/ml, 25 donor derived T cell lines): ~35%; average relative magnitude calculated over all donors ([2]; single peptides, FIG. 21): in the same range
GSDPKKLVLNIKYTRPGDSL-OH [peptide 217] | 1 | 5 | 6 | 3 | soluble | showed cross-reactivity | good solubility | sufficiently soluble | acceptable solubility | Visual inspection after 60 min pH 4.5 ([4]; 3 mg/mL, acetate salt, non-filtered, 250 mM D-Mannitol and 25 mM sodium acetate, pH 4.5): + particles; Visual inspection after centrifugation pH 4.5 ([4]; 3 mg/mL, acetate salt, non-filtered, 250 mM D-Mannitol and 25 mM sodium acetate, pH 4.5, after centrifugation): Ok; Visual inspection after 60 min pH 7 ([4]; 3 mg/mL, acetate salt, non-filtered, 250 mM D-Mannitol and 25 mM sodium phosphate, pH 7.0): particles +; Visual inspection after centrifugation pH 7 ([4]; 3 mg/mL, acetate salt, non-filtered, 250 mM D-Mannitol and 25 mM sodium phosphate, pH 7.0, after centrifugation): ++
YHFDLSGHAFGAMAKKGDEQ-OH [peptide 205] | 7 | 7 | 39 | 5 | soluble | showed cross-reactivity | good solubility | sufficiently soluble | acceptable solubility | Cross-reactivity score, Cyn d ([3]; homologue from Cyn d, score 0 to 7): 2; Cross-reactivity score, Fes p ([3]; homologue from Fes p, score 0 to 7): 7; Cross-reactivity score, Pha a ([3]; homologue from Pha a, score 0 to 7): 6; Cross-reactivity score, Poa p ([3]; homologue from Poa p, score 0 to 7): 3; Cross-reactivity score, Sor h ([3]; homologue from Sor h, score 0 to 7): 7
GFKAALAAAAGVPPADKYRT-OH [peptide 230] | – | – | – | – | – | showed cross-reactivity | – | – | – | –

Source: US20180207228A1, “PEPTIDE COMBINATIONS AND USES THEREOF FOR TREATING GRASS ALLERGY” (ALK-Abelló A/S, priority 2015, published 2018)
